PMC7242711, “An integrated approach to unravel a crucial structural property required for the function of the insect steroidogenic Halloween protein Noppera-bo” (The Journal of Biological Chemistry, 2020)

How the values were obtained:
[1] = target: T1, DmGSTE9 (Drosophila melanogaster, UniProt A1ZB74); assay: fluorogenic GSH conjugation assay with […],4-DNADCF; assay type: biochemical
T1 construct: gene GstE9; full-length CDS, pCold-III, N-terminal MNHKV kept; E. coli BL21(DE3)
T1 sequence (A1ZB74 1-221): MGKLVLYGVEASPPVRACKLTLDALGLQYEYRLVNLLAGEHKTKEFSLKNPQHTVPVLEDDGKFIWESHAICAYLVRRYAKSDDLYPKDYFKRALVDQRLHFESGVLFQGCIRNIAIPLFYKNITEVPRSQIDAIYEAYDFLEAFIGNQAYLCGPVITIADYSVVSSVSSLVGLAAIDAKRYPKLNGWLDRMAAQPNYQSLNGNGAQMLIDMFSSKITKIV

[2] = target: T2, AgNobo (Anopheles gambiae, UniProt Q8WQJ5); assay: fluorogenic GSH conjugation assay with […],4-DNADCF; assay type: biochemical
T2 construct: gene GSTe8; full-length CDS, pCold-III, N-terminal MNHKV kept; E. coli BL21(DE3)
T2 sequence (Q8WQJ5 1-217): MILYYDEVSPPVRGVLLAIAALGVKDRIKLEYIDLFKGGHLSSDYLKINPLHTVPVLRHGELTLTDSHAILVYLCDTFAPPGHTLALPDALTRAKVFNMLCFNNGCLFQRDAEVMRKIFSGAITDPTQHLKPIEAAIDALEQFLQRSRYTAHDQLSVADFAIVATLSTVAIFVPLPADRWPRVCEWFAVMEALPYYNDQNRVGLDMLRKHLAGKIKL

[3] = target: T3, DmGSTE6 (Drosophila melanogaster, UniProt A1ZB71); assay: fluorogenic GSH conjugation assay with […],4-DNADCF; assay type: biochemical
T3 construct: gene GstE6; full-length CDS, pCold-III, N-terminal MNHKV kept; E. coli BL21(DE3)
T3 sequence (A1ZB71 1-222): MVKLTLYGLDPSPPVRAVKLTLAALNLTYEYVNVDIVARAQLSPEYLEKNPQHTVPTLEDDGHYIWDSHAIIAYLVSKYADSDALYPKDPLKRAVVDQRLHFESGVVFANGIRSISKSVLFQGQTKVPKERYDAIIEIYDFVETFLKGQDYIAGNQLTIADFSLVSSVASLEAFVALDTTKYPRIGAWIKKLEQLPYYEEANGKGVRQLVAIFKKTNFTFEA

[4] = target: T4, AgNobo (Anopheles gambiae, UniProt Q8WQJ5, D111A); assay: fluorogenic GSH conjugation assay with […],4-DNADCF; assay type: biochemical
T4 construct: gene GSTe8; full-length CDS, pCold-III, N-terminal MNHKV kept; E. coli BL21(DE3)
T4 sequence (Q8WQJ5 1-217 D111A): T2 sequence (Q8WQJ5 1-217)

[5] = target: T5, DmNobo (Drosophila melanogaster, UniProt Q7JYX0, D113A); assay: fluorogenic GSH conjugation assay with […],4-DNADCF; assay type: biochemical
T5 construct: gene GstE14; full-length CDS, pCold-III, N-terminal translation enhancing element MNHKV kept; E. coli BL21(DE3); homodimer
T5 sequence (Q7JYX0 whole entry D113A): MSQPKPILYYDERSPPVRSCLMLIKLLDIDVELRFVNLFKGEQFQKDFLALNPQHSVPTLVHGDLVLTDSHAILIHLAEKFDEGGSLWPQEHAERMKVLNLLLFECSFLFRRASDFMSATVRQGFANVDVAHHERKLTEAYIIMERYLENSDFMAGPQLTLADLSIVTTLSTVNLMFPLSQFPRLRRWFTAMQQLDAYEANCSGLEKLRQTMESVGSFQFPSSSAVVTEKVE

[6] = target: T6, DmNobo (Drosophila melanogaster, UniProt Q7JYX0); assay: SPR, Biacore T200, protein immobilised on CM5 chip by amine coupling; assay type: binding
T6 construct: gene GstE14; full-length CDS, pCold-III, N-terminal translation enhancing element MNHKV kept; E. coli BL21(DE3); homodimer
T6 sequence (Q7JYX0 whole entry): as the sequence (Q7JYX0 whole entry D113A) above, with A113D counted along it
From the text: SPR, Biacore T200, protein immobilised on CM5 chip by amine coupling on DmNobo | Kd values between DmNobo WT and EST in the presence or absence of GSH were […]

[7] = target: T6, DmNobo; assay: fluorogenic GSH conjugation assay with […],4-DNADCF; assay type: biochemical; conditions: 1 mM GSH, 1 μM 3,4-DNADCF (final, after equal-volume mixing), 100 mM sodium phosphate pH 6.5, 0.01% Tween 20; H-site

For `C[C@]12CC[C@@H]3c4ccc(O)cc4CC[C@H]3[C@@H]1CC[C@@H]2O` [17β-estradiol], the IC50 [1] was over 25000 nM, the IC50 [2] was 2070 nM and the IC50 [3] was over 25000 nM. It also gave an IC50 [4] of over 25000 nM, an IC50 [5] of over 25000 nM and a Kd [6] of 480 ± 100 nM. The IC50 [7] was 2330 nM.
